# Measurements published in patent US12520844B2 (Bayer Aktiengesellschaft, priority 2020, dated 2026).
# Test: Measurement of Log P values by HPLC on reversed phase columns (EEC directive 79/831 Annex V.A8)
# Assay type: physicochemical
# Experimental: Measurement of Log P values as provided herein was performed according to EEC directive 79/831 Annex V.A8 by HPLC (High Performance Liquid Chromatography) on reversed phase columns with the following methods: • ^[a] Log P value is determined by measurement of LC-UV, in an acidic range, with 0.1% formic acid in water and acetonitrile as eluent (linear gradient from 10% acetonitrile to 95% acetonitrile). • ^[b] Log P value is determined by measurement of LC-UV, in a neutral range, with 0.001 molar ammonium acetate solution in water and acetonitrile as eluent (linear gradient from 10% acetonitrile to 95% acetonitrile). • ^[c] Log P value is determined by measurement of LC-UV, in an acidic range, with 0.1% phosphoric acid and acetonitrile as eluent (linear gradient from 10% acetonitrile to 95% acetonitrile).
# If more than one Log P value is available within the same method, all the values are given and separated by “+”.
# Calibration was done with straight-chain alkan2-ones (with 3 to 16 carbon atoms) with known Log P values (measurement of Log P values using retention times with linear interpolation between successive alkanones). Lambda-max-values were determined using UV-spectra from 200 nm to 400 nm and the peak values of the chromatographic signals
LogP,chromatographic logP,Compound
4.40^[a],–,Cc1ncc(Oc2cccc(C3CC3)c2F)c(C(=O)NC2CCC(C)c3ccccc32)n1 (mixture of isomers) [Compound I-065]
4.73^[a],–,Cc1ncc(Oc2cccc(C3CC3)c2F)c(C(=O)NC2CC23CCc2cc(Br)ccc23)n1 (mixture of isomers) [Compound I-091]
4.34^[a],–,Cc1nnc(Oc2cccc(C(F)(F)F)c2)c(C(=O)NCC(Cl)c2ccc(Cl)cc2Cl)n1 (racemic) [Compound I-020]
3.62^[a],–,Cc1ncc(Oc2cccc(C3CC3)c2F)c(C(=O)NC2CCOc3ccc(F)cc32)n1 (racemic) [Compound I-030]
3.98^[a],–,Cc1ncc(Oc2cccc(C3CC3)c2F)c(C(=O)NC2CCSc3ccc(F)cc32)n1 (racemic) [Compound I-125]
4.38^[a],–,Cc1ncc(Oc2cccc(C3CC3)c2F)c(C(=O)NCC(F)c2ccc(Cl)c(Cl)c2)n1 (racemic) [Compound I-127]
–,4.04,"Cc1ncc(Oc2cccc(C(F)(F)F)c2)c(C(=O)NCC(F)(F)c2ccc(Cl)cc2)n1 [Compound I-002, N-[2-(4-chlorophenyl)-2,2-difluoroethyl]-2-methyl-5-[3-(trifluoromethyl)phenoxy]pyrimidine-4-carboxamide]"
4.49^[a],–,Cc1ncc(Oc2cccc(C(F)(F)F)c2)c(C(=O)NCC(F)(F)c2ccc(Br)cc2Cl)n1 [Compound I-004]
–,4.26,"Cc1nnc(Oc2cccc(C(F)(F)F)c2)c(C(=O)NCC(F)(F)c2ccc(Br)cc2Cl)n1 [Compound I-005, N-[2-(4-bromo-2-chlorophenyl)-2,2-difluoroethyl]-3-methyl-6-[3-(trifluoromethyl)phenoxy]-1,2,4-triazine-5-carboxamide]"
4.37^[a],–,Cc1ccc(C(F)(F)CNC(=O)c2nc(C)ncc2Oc2cccc(C(F)(F)F)c2)c(Cl)c1 [Compound I-008]
–,4.38,"Cc1ccc(C(F)(F)CNC(=O)c2nc(C)ncc2Oc2cccc(C3CC3)c2)c(C)c1 [Compound I-015, 5-(3-cyclopropylphenoxy)-N-[2-(2,4-dimethylphenyl)-2,2-difluoroethyl]-2-methylpyrimidine-4-carboxamide]"
2.72^[a],–,Cc1ncc(Oc2cccc(C3CC3)c2F)c(C(=O)NCCc2ncc(Cl)cn2)n1 [Compound I-016]
3.62^[a],–,Cc1ncc(Oc2cccc(C3CC3)c2F)c(C(=O)N[C@H]2CCOc3ccc(F)cc32)n1 [Compound I-017]
3.31^[a],–,Cc1ncc(Oc2cccc(C3CC3)c2F)c(C(=O)NCCc2ccc(C(F)(F)F)cn2)n1 [Compound I-018]
4.19^[a],–,Cc1ccc(C(F)(F)CNC(=O)c2nc(C)nnc2Oc2cccc(C3CC3)c2)c(Cl)c1 [Compound I-021]
3.40^[a],–,CC(=O)c1cccc(Oc2cnc(C)nc2C(=O)NCC(F)(F)c2ccc(C)cc2C)c1 [Compound I-022]
4.15^[a],–,Cc1ccc(C(F)(F)CNC(=O)c2nc(C)ncc2Oc2ccc3ccsc3c2)c(C)c1 [Compound I-023]

LogP,chromatographic logP,Compound
4.66^[a],–,Cc1ccc(C(F)(F)CNC(=O)c2nc(C3CC3)nnc2Oc2cccc(C(F)(F)F)c2)cc1C [Compound I-024]
4.66^[a],–,Cc1ccc(C(F)(F)CNC(=O)c2nc(C3CC3)nnc2Oc2cccc(Br)c2F)c(C)c1 [Compound I-025]
4.02^[a],–,Cc1ccc(C(F)(F)CNC(=O)c2nc(C)ncc2Oc2cc(F)c(F)cc2F)c(C)c1 [Compound I-026]
5.36^[a],–,Cc1ccc(C(F)=CNC(=O)c2nc(C3CC3)nnc2Oc2cccc(Br)c2F)c(C)c1 [Compound I-027]
3.21^[a],–,Cc1ncc(Oc2cccc(C3CC3)c2F)c(C(=O)NCCc2ccc3[nH]ccc3c2)n1 [Compound I-029]
4.19^[a],–,Cc1nnc(Oc2cccc(C3CC3)c2)c(C(=O)NCC(F)(F)c2ccc(C)c(C)c2)n1 [Compound I-031]
3.09^[a],–,Cc1ncc(Oc2cccc(C3CC3)c2F)c(C(=O)NCCc2cnc(C(F)(F)F)nc2)n1 [Compound I-032]
3.88^[a],–,Cc1ccc(C(F)(F)CNC(=O)c2nc(C)ncc2Oc2cccc(N(C)C)c2)c(C)c1 [Compound I-035]
4.81^[a],–,Cc1ccc(C(F)(F)CNC(=O)c2nc(C3CC3)nnc2Oc2cccc(C3CC3)c2F)c(C)c1 [Compound I-037]
4.59^[a],–,C#Cc1cccc(Oc2nnc(C3CC3)nc2C(=O)N/C=C(\F)c2ccc(C)cc2C)c1 [Compound I-038]
5.49^[a],–,Cc1ccc(/C(F)=C\NC(=O)c2nc(C3CC3)nnc2Oc2cccc(C3CC3)c2F)c(C)c1 [Compound I-040]
3.52^[a],–,Cc1ncc(Oc2cccc(C3CC3)c2F)c(C(=O)NCCc2ccc(C)o2)n1 [Compound I-041]
3.23^[a],–,Cc1ncc(Oc2cccc(C3CC3)c2F)c(C(=O)NCCc2cccc3[nH]ccc23)n1 [Compound I-042]
3.98^[a],–,Cc1ccc(C(F)(F)CNC(=O)c2nc(C)ncc2Oc2cccc(OC(F)F)c2)c(C)c1 [Compound I-044]
4.55^[a],–,Cc1ncc(Oc2cccc(C3CC3)c2F)c(C(=O)NC2CCCc3ccc(Br)cc32)n1 (stereo not shown) [Compound I-045]
3.54^[a],–,Cc1ncc(Oc2cccc(C3CC3)c2F)c(C(=O)NC2CCOc3ccccc32)n1 (stereo not shown) [Compound I-046]

# The remaining lines, values behind:
Compound,LogP,chromatographic logP
"Cc1ncc(Oc2cccc(C(F)(F)F)c2)c(C(=O)O)n1 [Compound 1-01, 2-methyl-5-[3-(trifluoromethyl)phenoxy]pyrimidine-4-carboxylic Acid]",–,1.69
"CCOC(=O)c1nc(C)nnc1Oc1cccc(C(F)(F)F)c1 [Compound 1-02, ethyl 3-methyl-6-[3-(trifluoromethyl)phenoxy]-1,2,4-triazine-5-carboxylate]",–,3.18
O=C(O)c1nc(C2CC2)ncc1Oc1cccc(C(F)(F)F)c1 [Compound 1-03],2.49^[a],–
COc1ncc(Oc2cccc(C(F)(F)F)c2)c(C(=O)O)n1 [Compound 1-04],1.96^[a],–
CCOC(=O)c1nc(C2CC2)nnc1Oc1cccc(C(F)(F)F)c1 [Compound 1-05],3.95^[a],–
CCOC(=O)c1nc(C2CC2)nnc1Oc1cccc(Cl)c1F [Compound 1-06],3.86^[a],–
CCOC(=O)c1nc(C2CC2)nnc1Oc1cccc(Br)c1F [Compound 1-07],3.93^[a],–
CCOC(=O)c1nc(C2CC2)nnc1Oc1cccc(C2CC2)c1F [Compound 1-08],4.19^[a],–
CCOC(=O)c1nc(C2CC2)nnc1Oc1cccc(C)c1F [Compound 1-09],3.78^[a],–
CCOC(=O)c1nc(C2CC2)nnc1Oc1cccc(Br)c1 [Compound 1-10],3.94^[a],–
C#Cc1cccc(Oc2nnc(C3CC3)nc2C(=O)OCC)c1 [Compound 1-11],3.59^[a],–
CCOC(=O)c1nc(C2CC2)nnc1Oc1cccc(OC)c1 [Compound 1-12],3.37^[a],–
O=C(O)c1nc(F)ncc1Oc1cccc(C(F)(F)F)c1 [Compound 1-13],1.52^[a],–
CCc1ncc(Cl)c(C(=O)NCC(F)(F)c2ccc(C)cc2C)n1 [Compound 3-01],3.77^[a],–
Cc1ccc(C(F)(F)CNC(=O)c2nc(C3CC3)ncc2Br)c(C)c1 [Compound 3-02],4.08^[a],–
CSc1ncc(Br)c(C(=O)NCC(F)(F)c2ccc(C)cc2C)n1 [Compound 3-03],4.05^[a],–

Compound,LogP,chromatographic logP
"Cc1ccc(C(F)(F)CNC(=O)c2nc(C)ncc2Br)c(C)c1 [Compound 3-04, 5-bromo-N-[2-(2,4-dimethylphenyl)-2,2-difluoroethyl]-2-methylpyrimidine-4-carboxamide]",–,3.25
Cc1ccc(C(F)(F)CNC(=O)c2nc(C)ncc2Oc2cccc(C(F)(F)F)c2)c(C)c1 [Compound I-003],4.32^[a],–
Cc1nnc(Oc2cccc(C(F)(F)F)c2)c(C(=O)NCC(F)(F)c2ccc(Cl)cc2)n1 [Compound I-006],3.85^[a],–
Cc1nnc(Oc2cccc(C(F)(F)F)c2)c(C(=O)NCC(F)(F)c2ccc(Cl)cc2Cl)n1 [Compound I-007],4.20^[a],–
COc1ncc(Oc2cccc(C(F)(F)F)c2)c(C(=O)NCC(F)(F)c2ccc(C)cc2C)n1 [Compound I-009],4.46^[a],–
CCc1ncc(Oc2cccc(C(F)(F)F)c2)c(C(=O)NCC(F)(F)c2ccc(C)cc2C)n1 [Compound I-011],4.89^[a],–
CSc1ncc(Oc2cccc(C(F)(F)F)c2)c(C(=O)NCC(F)(F)c2ccc(C)cc2C)n1 [Compound I-012],4.97^[a],–
Cc1ccc(C(F)(F)CNC(=O)c2nc(C)ncc2Oc2cccc(Cl)c2)c(C)c1 [Compound I-013],4.30^[a],–
Cc1ccc(C(F)(F)CNC(=O)c2nc(C3CC3)ncc2Oc2cccc(Cl)c2)c(C)c1 [Compound I-014],5.00^[a],–
COc1cccc(Oc2cnc(C)nc2C(=O)NCC(F)(F)c2ccc(C)cc2C)c1 [Compound I-019],3.76^[a],–
Cc1nnc(Oc2cccc(C3CC3)c2)c(C(=O)NCC(F)(F)c2ccc(Cl)cc2)n1 [Compound I-028],4.01^[a],–
Cc1cccc(Oc2cnc(C)nc2C(=O)NCC(F)(F)c2ccc(C)cc2C)c1 [Compound I-033],4.06^[a],–
CON(CCc1ccc(Cl)cc1Cl)C(=O)c1nc(C)ncc1Oc1cccc(C2CC2)c1F [Compound I-034],4.91^[a],–
Cc1ccc(C(F)(F)CNC(=O)c2nc(C)ncc2Oc2cccc(Cl)c2F)c(C)c1 [Compound I-039],4.22^[a],–
Cc1ncc(Oc2cccc(C3CC3)c2F)c(C(=O)NCC(F)c2ccc(C)c(C)c2)n1 (stereo not shown) [Compound I-043],4.22^[a],–
